Assay results as given in article PMC9008879, “Inhibition of CYP3A-mediated Midazolam Metabolism by Kaempferia Parviflora” (Food Safety, 2022).

Legend:
CYP3A [1] = assay: Direct inhibition of CYP3A-mediated MDZ 1'-hydroxylation activity in human liver microsomes; assay type: in vitro ADME; conditions: HLM, 10 µM MDZ; 5,7-DMF 0.03-30 µM, 3,5,7,3',4'-PMF 0.02-20 µM, no pre-incubation
Procedure: An in vitro study was carried out to investigate the inhibitory effects of KP extract, 5,7-DMF, and 3,5,7,3’,4’-PMF on CYP3A-mediated MDZ 1’-hydroxylation (MDZ 1’-OH) activity.
The reaction mixtures, each with a total volume of 200 µL, consisting of 100 µg pooled HLM, 10 µM MDZ, and a nicotinamide adenine dinucleotide phosphate (NADPH)-generating system (1 mM NADPH, 8 mM glucose 6-phosphate, and 0.5U glucose 6-phosphate dehydrogenase) in 80 mM phosphate buffer (pH 7.4), were incubated at 37°C for 5 min in the presence of KP extract (40-80 µg/ml), 5,7-DMF (0.03-30 µM), or 3,5,7,3’,4’-PMF (0.02-20 µM). […] After centrifugation at 20,800 × g for 10 min at 4°C, the supernatant was injected into an HPLC apparatus equipped with a CAPCELLPAK C18 SG120 column (4.6 mm × 250 mm, Shiseido) and 1’-hydroxymidazolam was analyzed according to a previous report[20]^,[21]^). Control activity was determined under the same conditions with a reaction mixture containing water, 1% methanol, or 1% acetonitrile instead of KP extract, 5,7-DMF, or 3,5,7,3’,4’-PMF. Results were expressed as a percentage of each control activity. The inhibition mode and inhibition constant (Ki) values of KP extract on MDZ 1’-OH activity were calculated using nonlinear regression analysis using GraphPad Prism 7.03 (GraphPad Software Inc., La Jolla, CA, USA).

CYP3A [2] = assay: Pre-incubation study (time-dependent / mechanism-based inhibition) of MDZ 1'-OH activity in human liver microsomes; assay type: in vitro ADME; conditions: for Change of MDZ 1'-OH activity after pre-incubation: HLM, pre-incubation 0-30 min with or without NADPH, KP extract 120 µg/ml, 5,7-DMF 30 µM, 3,5,7,3',4'-PMF 20 µM; for KI (inactivation) / kinact / kinact/KI: human, human liver microsomes, probe midazolam (MDZ) 10 µM, 1'-hydroxylation, HLM + NADPH, 10-fold dilution; for KI (inactivation): pre-incubation 5-30 min, read-out: KI (inhibitor concentration causing half-maximal inactivation); for kinact / kinact/KI: pre-incubation; for kinact: read-out: kinact (maximal inactivation rate constant) (converted); for kinact/KI: read-out: kinact/KI (efficiency of inactivation) (converted)
Procedure: Pre-incubation studies were performed to determine whether the metabolic intermediates produced by KP ingredients cause an MBI that inactivates CYP3A. KP extract (120 µg/ml), 5,7-DMF (30 µM), or 3,5,7,3’,4’-PMF (20 µM) was pre-incubated with HLM at 37°C for 10, 20, or 30 min, in the presence or absence of a NADPH-generating system. After the pre-incubation step, MDZ was added, and MDZ 1’-OH activity was assayed as described above.
In addition, another assay was designed to minimize the direct inhibition of CYP3A by KP ingredients by diluting the contents of the inactivation mixture 10-fold. As a primary incubation mixture, KP extract (30-120 µg/ml), 5,7-DMF (6-30 µM), or 3,5,7,3’,4’-PMF (5-20 µM) were pre-incubated in the presence of HLM and a NADPH-generating system at 37°C. Pre-incubation times were 5, 10, 15, or 20 min for KP extract, and 5, 10, 20, or 30 min for 5,7-DMF and 3,5,7,3’,4’-PMF. At determined time points, an aliquot of 50 µL of the primary reaction mixture was moved to 450 µL of the secondary incubation mixture containing 10 µM MDZ, and further incubated for 5 min. The oxidation of MDZ was analyzed as described above.
The decrease in the natural logarithm of the % residual MDZ 1’-OH activity against pre-incubation time was plotted for each inhibitor concentration, and the apparent inactivation rate constant (Kobs) values were described as the negative slopes of the lines. The maximal inactivation rate constant (kinact) and the inhibitor concentration causing half-maximal inactivation (KI) were estimated by double-reciprocal plot of the Kobs against the inhibitor concentration. The efficiency of inactivation was calculated as the ratio of kinact to KI.

CYP3A [3] = tested on: CYP3A; parameters: method as in PMID 29550915; conditions: mice, 5,7-DMF for ten days; cited from earlier work
CYP3A4 = tested on: CYP3A4; parameters: method as in PMID 17709371; conditions: HLM and recombinant microsomes; cited from earlier work

SMILES	Direct inhibition of MDZ 1'-OH activity (CYP3A [1])	Change of MDZ 1'-OH activity after pre-incubation (CYP3A [2])	KI (inactivation) (CYP3A [2]) [µM]	kinact (CYP3A [2]) [s⁻¹]	kinact/KI (CYP3A [2]) [M⁻¹ s⁻¹]	AUC of MDZ (CYP3A [3])	Elimination half-life (t1/2) of MDZ (CYP3A [3])	Hepatic CYP3A expression (CYP3A [3])	Metabolizing CYP enzymes (CYP3A4)
COc1cc(OC)c2c(=O)c(OC)c(-c3ccc(OC)c(OC)c3)oc2c1 [3,5,7,3’,4’-PMF, 3,5,7,3’,4’-pentamethoxyflavone]	did not inhibit	time- and NADPH-dependent decrease	25.5	2.67e-05	1.05				
COc1cc(OC)c2c(=O)cc(-c3ccccc3)oc2c1 [5,7-DMF, 5,7-dimethoxyflavone]	did not inhibit	time- and NADPH-dependent decrease	10.7	0.000433	40	increased	increased	decreased	not metabolized by CYP3A4, but by CYP1A1 and CYP1A2
